# Active and inactive are the calls of the source. The rule behind the calls is not given here.
# System: 697B cells, BCR-induced NF-kB luciferase reporter luminescence
# Test: inhibitors of BCR-induced NF-kB activation, dose response, 697B cells, luciferase luminescence (AID 489023)
row,SMILES,IC50
1,Cn1nc(-c2ccc(N3CCOCC3)c(NS(=O)(=O)c3ccccc3)c2)c2ccccc2c1=O,> 80 µM (inactive)
2,Cc1nn(C(C)(C)C)c(C)c1/C=N/OC(=O)Nc1ccc(Cl)c(Cl)c1,0.74 µM
3,COc1ccc(C(=O)N/N=C/c2ccc(OC)c(CN3CCCc4ccccc43)c2)cc1,> 80 µM (inactive)
4,CC(C)C[C@@H](N)c1nnc(SCC(=O)c2ccc(Cl)cc2)o1,47.6 µM (inactive)
5,CC1Cc2ccccc2N1S(=O)(=O)c1cnc(Cl)c(Cl)c1 (stereo unspecified),> 80 µM (inactive)
6,CCCCOc1ccc(NC(=O)C(=O)NCCCn2ccnc2)cc1,10.9 µM
7,Cc1ccc(/C=C2\SC(=S)N(CCCC(=O)Nc3ccc(O)cc3)C2=O)cc1,0.27 µM
8,CCc1ccc2[nH]c3nc(N/N=C/c4cccc(O)c4)nnc3c2c1,> 80 µM (inactive)
9,O=C1NC[C@H](c2ccccc2)OC(=O)[C@@H](Cc2ccc(F)cc2)C/C=C\C[C@H]1CC(=O)N(CCO)Cc1ccccc1,9.87 µM
10,CCN(CC)c1ccc(/C=N/N=C(c2ccccc2)c2ccccc2)c(O)c1,> 80 µM (inactive)
11,CCC(=O)N1c2ccccc2C(N(C(C)=O)c2ccccc2)CC1C (stereo unspecified),61 µM (inactive)
12,COc1ccc(S(=O)(=O)Nc2cc3c(C(C)=O)c(C)oc3c3ccccc23)cc1,> 80 µM (inactive)
13,C/C=C(/C)C(=O)OC1Cc2c(ccc3ccc(=O)oc23)OC1(C)C (stereo unspecified),> 80 µM (inactive)
14,COc1ccc(OC)c(S(=O)(=O)Nc2ccc(-c3ccc4nnc(C)n4n3)cc2)c1,> 80 µM (inactive)
15,COc1ccc(C(C(=O)NC2CCCCC2)N(C(=O)CCl)c2ccc(Cl)cc2)cc1 (stereo unspecified),0.85 µM
16,Cc1cc(-c2cc(C(=O)NCc3ccccc3)on2)nc(S(C)(=O)=O)n1,3.93 µM
17,Cc1ccc(C(=O)CSc2nnc(COc3cc(C)cc(C)c3)o2)cc1,> 80 µM (inactive)
18,COC(=O)C(C)Oc1cc(C)cc2oc(=O)c3c(c12)CCC3 (stereo unspecified),58 µM (inactive)
19,COc1ccc(/C=C2\SC(=O)N(CCCC(=O)Nc3ccc(C(=O)O)cc3)C2=O)cc1OC,7.83 µM
20,C(=N\Nc1nc(Nc2ccccc2)nc(Nc2ccccc2)n1)/c1cccnc1,> 80 µM (inactive)
21,CCCc1nc2c(C)cc(-c3nc4ccccc4n3C)cc2n1Cc1ccc(-c2ccccc2C(=O)O)cc1,72.5 µM (inactive)
22,COc1ccc(-c2ccc(OC)c([C@H]3[C@H]4C=CC[C@@H](C)[C@@H]4C(=O)N3Cc3ccccc3)c2)cc1C,> 80 µM (inactive)
23,C=CCOc1ccccc1CN(C(=O)CCl)c1ccc2c(c1)OCO2,0.72 µM
24,O=C(CCCN1C(=O)/C(=C/c2ccccc2Cl)SC1=S)NNC(=O)c1ccc(Cl)cc1,30.7 µM (inactive)

row,SMILES,IC50
1,Cc1ccc(/C=C2\SC(=S)N(CCCC(=O)NNC(=O)c3ccccc3O)C2=O)cc1,1.26 µM
2,CCOc1ccc(-c2nc(CSCC(=O)NC3CC3)c(C)o2)cc1,0.28 µM
3,COc1cc(-c2nc3n(n2)C(c2ccc(F)cc2)C2=C(CCCC2=O)N3)cc(OC)c1OC (stereo unspecified),65.5 µM (inactive)
4,N=c1ccn(Cc2c(Cl)cccc2Cl)cc1,> 80 µM (inactive)
5,COc1ccc(C(=O)Nc2cccc(NC(=O)c3ccc(OC)c(OC)c3)n2)cc1OC,3.64 µM
6,CCN1CCN(C(=O)CSc2cc(=O)n(CC)c3ccccc23)CC1,> 80 µM (inactive)
7,CCN(CC)c1ccc(/C=C2/C(=O)ON=C2C)cc1,21.2 µM (inactive)
8,COc1ccc(-c2noc(CCCC(=O)O)n2)cc1,2.14 µM
9,COc1cc(/C=N/Nc2nc(Nc3ccccc3)nc(N3CCOCC3)n2)ccc1OC(=O)c1ccco1,5.16 µM
10,O=C(Nc1nc2c(Br)cc(Br)cc2c(=O)s1)c1ccco1,1.8 µM
11,CC(C)Oc1ccc(C(=O)Nc2ccc(N(C)C)cc2)cc1,61.3 µM (inactive)
12,COc1ccc(-c2n(Cc3ccccc3)c3ccccc3[n+]2Cc2ccccc2)cc1,> 80 µM (inactive)
13,CCN(CC(=O)Nc1c(F)cccc1F)C(=O)c1cc(S(=O)(=O)N2CCOCC2)ccc1N1CCCC1,12.7 µM
14,CC1=CC(C)(C)Nc2ccc(OC(=O)CN3C(=O)CCC3=O)cc21,8.56 µM
15,Cc1nc2ccccn2c1C(=O)/C=C/c1cccc([N+](=O)[O-])c1,22.8 µM (inactive)
16,Cc1cc(NC(=O)CCCN2C(=O)/C(=C/c3ccccc3Cl)SC2=S)no1,8.86 µM
17,Cn1c(=O)c2c(SCC(=O)Nc3ccccc3F)nc(-c3ccccc3F)nc2n(C)c1=O,21.8 µM (inactive)
18,Fc1ccc(C2=Nn3c(nnc3-c3n[nH]c4c3CCC4)SC2)cc1,34.6 µM (inactive)
19,CC(C)(C)c1ccc(-c2noc(CCC(=O)NCC3CCCO3)n2)cc1 (stereo unspecified),0.21 µM
20,O=C1CCCc2c1[nH]c1ccc(CN3CCCCC3)cc21,> 80 µM (inactive)
21,Cc1ccc(C(=O)CSc2nnc(COc3cccc(C)c3)o2)cc1,> 80 µM (inactive)
22,CN(C)C(=O)CCc1nc(-c2ccc(C(C)(C)C)cc2)no1,18.8 µM
23,CNC(=O)c1cccn(Cc2ccc(C(F)(F)F)cc2)c1=O,47.9 µM (inactive)
24,O=C(Nc1nc(-c2ccccc2)cs1)c1ccccc1NS(=O)(=O)c1ccc(F)cc1,21.7 µM (inactive)

row,SMILES,IC50
1,NC(=O)C1CCN(C(=O)COc2ccc3ccccc3c2Br)CC1,39.4 µM (inactive)
2,Cc1nc2cc(-c3ccc(Cl)cc3)nn2c(C)c1CCC(=O)NCc1ccco1,> 80 µM (inactive)
3,CCOc1ccc(-n2c(-c3ccccc3)c[n+]3c2CCCCC3)cc1,> 80 µM (inactive)
4,Cc1ccc(-c2nn3c(C)nnc3c3ccccc23)cc1S(=O)(=O)N1CCN(CCO)CC1,26.5 µM (inactive)
5,CCn1c(CN2CCN(c3ccc(Cl)cc3)CC2)nc2ccccc21,> 80 µM (inactive)
6,COc1ccc(-c2ccc(C)cc2)cc1[C@H]1[C@H]2C=CC[C@@H](C)[C@@H]2C(=O)N1Cc1ccccc1,> 80 µM (inactive)
7,CCC(=O)N1c2ccccc2[C@@H](N(C(C)=O)c2ccccc2)C[C@H]1C,58.2 µM (inactive)
8,COc1cc(OC)c(/C=N/NC(N)=S)cc1Br,34.2 µM (inactive)
9,COc1cc(C[C@@H]2C(=O)OC[C@H]2Cc2ccc(OC)c(OC)c2)ccc1O,> 80 µM (inactive)
10,COC(=O)C1=C(c2ccc(-c3ccccc3)c(F)c2)C[C@@H]2CC[C@H]1N2C(=O)N1CCCC1,73.9 µM (inactive)
11,C=CCn1c(O)c(C(CC)=NC(C)c2ccccc2)c(=O)[nH]c1=O (stereo unspecified),56.4 µM (inactive)
12,CCc1ccc2nc(Nc3nc(COC)cc(=O)[nH]3)nc(C)c2c1,> 80 µM (inactive)
13,Cc1c(CCO)c(=O)oc2n[nH]c(-c3ccccc3)c12,13.8 µM
14,Cc1c(CC(=O)NCCCC(=O)O)c(=O)oc2cc3c(cc12)CCC(C)(C)O3,6.82 µM
15,COC(=O)[C@@]12OC[C@]34[C@H]([C@@H](O)[C@@H]1O)[C@@]1(C)C(=O)C(O[C@@H]5OC(CO)[C@@H](O)[C@@H](O)[C@@H]5O)=C[C@@H](C)[C@@H]1C[C@H]3OC(=O)[C@H](OC(=O)/C=C(\C)C(C)(C)OC(C)=O)[C@@H]24 (stereo partly specified),0.42 µM
16,CCOc1ccc(-c2nnc(SCC(=O)NC3CC3)o2)cc1,62 µM (inactive)
17,CCN(CC)CCCN=Cc1c(-c2ccccc2)[nH]n(-c2nc3ccccc3s2)c1=O,17.9 µM
18,Cc1nn(C)c(C)c1CN(C)S(=O)(=O)c1ccc2ccccc2c1,> 80 µM (inactive)
19,Cc1[nH]c2ccccc2c1/C=N/Nc1nc(Nc2ccccc2)nc(N2CCOCC2)n1,3.35 µM
20,COc1ccc(Cc2nc(-c3ccc(NC(=O)c4cccnc4)cc3)no2)cc1,> 80 µM (inactive)
21,OCCN1CCN(C(=S)c2ccc(-c3ccccc3)cc2)CC1,5.72 µM
22,Cc1ccc(-c2cn(-c3ccccc3)c3[n+]2CCCS3)cc1,> 80 µM (inactive)
23,Cc1ccc(S(=O)(=O)Nc2ccc3c(c2)n(C)c(=O)n3C)cc1,> 80 µM (inactive)
24,Cc1cc(N(C)C)ccc1N=Nc1ccc(N)cc1,61.1 µM (inactive)

row,SMILES,IC50
1,CCN(CC)S(=O)(=O)c1ccc(N2CCOCC2)c(NC(=O)c2[nH]c(C)c(C(C)=O)c2C)c1,27.3 µM (inactive)
2,O=C(CCCN1C(=O)/C(=C/c2ccccc2Cl)SC1=S)NNC(=O)c1ccc(Cl)cc1Cl,3.1 µM
3,CC1CC(C)CN(S(=O)(=O)c2ccc(C(=O)NCCCn3ccnc3)cc2)C1 (stereo unspecified),5.07 µM
4,CCN1C(=O)c2cccc3c(S(=O)(=O)N4CCC(C)CC4)ccc1c23,49.3 µM (inactive)
5,CCC(CO)Oc1cc(NCc2ccccc2O)c2ncn(C(C)C)c2c1 (stereo unspecified),> 80 µM (inactive)
6,Cn1c(=O)cc(OCC(=O)N2CCC3(CC2)OCCO3)c2ccccc21,67.5 µM (inactive)
7,COC(=O)c1c(-c2ccc(N(C)C)cc2)sc2ccc(OC)cc12,> 80 µM (inactive)
8,CC1CCN(c2c(NCc3ccc(C(=O)N4c5ccccc5CC4C)cc3)c(=O)c2=O)CC1 (stereo unspecified),> 80 µM (inactive)
9,O=C(NNC(=O)C12CC3CC(CC(Br)(C3)C1)C2)c1ccccc1F,12.1 µM
10,O=C(Nc1ccccc1C(=O)Nc1nnc(C(F)(F)F)s1)c1ccccc1,> 80 µM (inactive)
11,CCOc1ccc(-c2noc(CCC(=O)O)n2)cc1,4.12 µM
12,Cc1cc(C)cc(OCc2nnc(SCC(=O)c3ccccc3)o2)c1,> 80 µM (inactive)
13,CCc1ccc(/C=C2\SC(=S)N(CCCC(=O)Nc3ccccn3)C2=O)cc1,0.55 µM
14,COc1ccccc1/C=C1\SC(=S)N(CCC(=O)Nc2nnc(C)s2)C1=O,> 80 µM (inactive)
15,CCOc1ccc(-c2cc(CCCC(=O)NCCCOC)no2)cc1,> 80 µM (inactive)
16,COc1cccc(/C=C2/SC(=S)N(CCCC(=O)Nc3ccc(O)cc3)C2=O)c1,1.49 µM
17,CCc1ccc(-c2nnn(CCC(=O)OC)n2)cc1,5.46 µM
18,Cc1csc(NC(=O)CCc2c(C)nc3cc(-c4ccc(Cl)cc4)nn3c2C)n1,4.77 µM
19,CCn1c(=S)[nH]c2cc(S(=O)(=O)N3CCCCC3)ccc21,31 µM (inactive)
20,COc1ccc(-c2noc(N3CCC(C(=O)Nc4ccc(OC)c(OC)c4)CC3)n2)cc1,> 80 µM (inactive)
21,Cc1ccc(S(=O)(=O)CC2CSc3nc4ccccc4n32)cc1 (stereo unspecified),> 80 µM (inactive)
22,COc1ccc(-c2csc3nc(-c4cccnc4)nc(N4CCC(C(N)=O)CC4)c23)cc1OC,44.2 µM (inactive)
23,N=c1c2c(n(Cc3cccc(Cl)c3)c3c1CCC3)CCCC2,59.9 µM (inactive)
24,C[C@H]1CCC/C=C/C2C[C@H](O)CC2[C@H](O)/C=C/C(=O)O1 (stereo partly specified),> 80 µM (inactive)

# From PubChem BioAssay AID489023 (Sanford-Burnham Center for Chemical Genomics, 2010)
